Results on twelve compounds are retold here after patent US20080161419A1, “Prophylactic Antimigraine Agents” (priority 2004, published 2008).

The test system of assay [1] is migraine model of guinea pig. The assay can be described thus: Preventive effect in guinea pig migraine model (leaked protein from dural blood vessel caused by 5-HT). The note with it: for leakage of the protein: 10 mg/kg or 30 mg/kg of oral administration; for amount of leaked protein (fluorescence intensity per mg dura): 3 mg/kg, intraperitoneal administration, 5-HT i.v. The format is in vivo. The method, then: In this test system, migraine preventive effect was evaluated by measuring this leaked protein in the presence of a compound to be tested, and this was carried out by partially modifying the method described in Rachel A. Spokes and Vicki C. Middlefell, European Journal of Pharmacology (1995) 281, 75-79.
Hartley male guinea pig (250-350 g) was anesthetized by peritoneal administration (i.p.) of urethane (1.5 g/kg). By applying simple cannulation to a saphena, 50 mg/kg of a fluorescent protein (FITC-BSA) was intravenously administered (i.v.) and 5 minutes thereafter, physiological saline or […] of 5-HT was intravenously administered. By carrying out perfusion with physiological saline 15 minutes thereafter, blood was washed out. […] By detaching the skull, dura mater was took out and incubated at 37° C. for 16 hours in an Eppendorf tube in the presence of physiological saline of pH 11. Centrifugation was carried out, and the supernatant was dispensed into a plate. Fluorescence intensity was measured using a fluorescence plate reader (excitation wavelength 485 nm, […] 530 nm). By measuring dura mater weight, fluorescence intensity per mg dural protein was calculated.
Values of the fluorescence intensity measured at the time of the administration of each compound and at the time of no administration are shown in FIG. 1 to FIG. 4. […] The control indicates fluorescence intensity at the time of no addition of 5-HT, namely the reference value.

The next assay addresses α1 receptor. The assay can be described thus: Affinity for other receptors: α1. The format is binding. The source says:
(§1) Affinity of the compound of Preparation 3 for 5-HT1A, 5-HT1B, 5-HT2A, 5-HT2C, 5-HT3, 5-HT4, 5-HT6, α1, M1 and D2 receptors was verified using conventionally known techniques (Journal of Neurochemistry (1986) 47, 529-540; Molecular Pharmacology (1982) 21, 301-314; European Journal of Pharmacology (1985) 106, 539-546; Journal of Pharmacology Experimental Therapy (1992) 263, 1127-1132; British Journal of Pharmacology (1993) 109, 618-624; Molecular Pharmacology (1993) 43, 320-327; Molecular Pharmacology (1989) 35, 324-330; Cellular Molecular Neurobiology (1988) 8, 181-191; European Journal of Pharmacology (1988) 173, 177-182).

The target in another assay is T1, 5-HT2C receptor (Homo sapiens, UniProt P28335).
T1 sequence (P28335 33-458): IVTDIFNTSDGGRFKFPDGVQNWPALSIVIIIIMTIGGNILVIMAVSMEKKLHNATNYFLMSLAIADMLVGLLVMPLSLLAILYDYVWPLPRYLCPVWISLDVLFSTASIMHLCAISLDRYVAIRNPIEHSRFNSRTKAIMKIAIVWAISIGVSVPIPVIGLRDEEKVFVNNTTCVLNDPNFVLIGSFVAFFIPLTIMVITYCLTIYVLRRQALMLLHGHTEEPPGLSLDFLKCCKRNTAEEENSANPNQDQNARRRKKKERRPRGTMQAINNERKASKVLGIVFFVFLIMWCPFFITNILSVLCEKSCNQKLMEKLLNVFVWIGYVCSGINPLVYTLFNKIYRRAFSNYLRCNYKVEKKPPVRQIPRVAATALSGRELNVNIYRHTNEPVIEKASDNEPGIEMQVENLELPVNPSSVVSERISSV
The assay can be described thus: Affinity for other receptors: 5-HT2C. The format is binding.
Excerpt: as §1

In a further assay the target is T2, 5-HT1A receptor (Homo sapiens, UniProt P08908).
T2 sequence (P08908 1-422): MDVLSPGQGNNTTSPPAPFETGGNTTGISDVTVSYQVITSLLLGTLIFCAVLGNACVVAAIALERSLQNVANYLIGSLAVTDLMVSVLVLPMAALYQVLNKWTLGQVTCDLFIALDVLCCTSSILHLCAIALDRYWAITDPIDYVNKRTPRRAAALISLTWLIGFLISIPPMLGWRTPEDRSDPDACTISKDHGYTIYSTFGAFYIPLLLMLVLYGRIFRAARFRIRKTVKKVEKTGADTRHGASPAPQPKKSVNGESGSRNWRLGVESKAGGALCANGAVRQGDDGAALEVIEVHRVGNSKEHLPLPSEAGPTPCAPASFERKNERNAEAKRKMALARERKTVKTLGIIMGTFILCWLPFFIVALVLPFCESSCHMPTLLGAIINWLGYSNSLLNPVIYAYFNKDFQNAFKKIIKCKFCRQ
The assay can be described thus: Affinity for other receptors: 5-HT1A. It counts as binding.
Excerpt: as §1

In a further assay the target is D2 receptor (Homo sapiens, UniProt P14416). Kind of assay: Affinity for other receptors: D2. The format is binding.
Chain of D2 receptor (P14416 whole entry): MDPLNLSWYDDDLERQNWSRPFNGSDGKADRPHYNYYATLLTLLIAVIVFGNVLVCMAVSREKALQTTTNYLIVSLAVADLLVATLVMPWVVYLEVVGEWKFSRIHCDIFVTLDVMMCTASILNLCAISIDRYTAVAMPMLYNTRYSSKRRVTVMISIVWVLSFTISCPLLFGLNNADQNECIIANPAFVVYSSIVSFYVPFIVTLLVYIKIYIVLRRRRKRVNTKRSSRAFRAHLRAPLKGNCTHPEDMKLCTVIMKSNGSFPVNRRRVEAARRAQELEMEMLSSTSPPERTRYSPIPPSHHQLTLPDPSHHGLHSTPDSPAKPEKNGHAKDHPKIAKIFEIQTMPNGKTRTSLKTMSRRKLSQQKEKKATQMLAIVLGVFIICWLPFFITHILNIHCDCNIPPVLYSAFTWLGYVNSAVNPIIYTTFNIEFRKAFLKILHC
Excerpt: as §1

In the next assay the target is 5-HT2A receptor (Homo sapiens, UniProt P28223). Kind of assay: Affinity for other receptors: 5-HT2A. It counts as binding.
Chain of 5-HT2A receptor (P28223 whole entry): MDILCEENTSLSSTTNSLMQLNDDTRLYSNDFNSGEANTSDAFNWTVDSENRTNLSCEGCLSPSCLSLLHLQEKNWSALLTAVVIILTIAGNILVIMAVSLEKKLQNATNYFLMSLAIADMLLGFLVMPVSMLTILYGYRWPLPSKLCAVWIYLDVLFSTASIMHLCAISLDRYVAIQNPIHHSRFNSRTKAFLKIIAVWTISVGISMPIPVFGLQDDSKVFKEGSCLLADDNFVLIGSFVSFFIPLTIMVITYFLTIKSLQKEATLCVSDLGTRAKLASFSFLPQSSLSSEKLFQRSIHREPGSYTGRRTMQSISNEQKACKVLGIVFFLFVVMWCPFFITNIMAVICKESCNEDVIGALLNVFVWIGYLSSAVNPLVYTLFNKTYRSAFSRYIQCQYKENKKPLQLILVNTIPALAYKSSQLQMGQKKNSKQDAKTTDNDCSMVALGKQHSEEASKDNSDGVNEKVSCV
Excerpt: as §1

The target in the next assay is T3, human 5-HT2B receptor (Homo sapiens, UniProt P41595).
T3 construct: expressed in transfected cells; host or cells: HEK293-EBNA
T3 sequence (P41595 whole entry): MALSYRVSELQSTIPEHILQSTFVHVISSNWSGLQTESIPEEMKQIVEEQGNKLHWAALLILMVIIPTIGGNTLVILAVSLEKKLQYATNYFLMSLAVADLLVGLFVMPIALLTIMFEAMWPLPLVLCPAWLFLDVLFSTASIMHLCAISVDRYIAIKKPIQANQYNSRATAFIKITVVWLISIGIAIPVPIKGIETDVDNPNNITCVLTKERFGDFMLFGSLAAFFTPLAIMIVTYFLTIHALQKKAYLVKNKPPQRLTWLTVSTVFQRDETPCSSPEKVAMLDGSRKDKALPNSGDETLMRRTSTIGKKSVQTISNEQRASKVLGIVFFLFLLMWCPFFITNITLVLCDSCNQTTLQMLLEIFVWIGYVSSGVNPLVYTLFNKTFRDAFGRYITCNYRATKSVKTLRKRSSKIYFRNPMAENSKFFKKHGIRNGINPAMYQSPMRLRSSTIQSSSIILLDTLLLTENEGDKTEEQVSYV
Kind of assay: Binding test of 5-HT2B receptor. The note with it: [3H]Mesulergine, human 5-HT2B receptor expressing HEK293-EBNA cell membrane.

Another assay deals with 5-HT1B receptor (Homo sapiens, UniProt P28222). Kind of assay: Affinity for other receptors: 5-HT1B. It counts as binding.
Chain of 5-HT1B receptor (P28222 whole entry): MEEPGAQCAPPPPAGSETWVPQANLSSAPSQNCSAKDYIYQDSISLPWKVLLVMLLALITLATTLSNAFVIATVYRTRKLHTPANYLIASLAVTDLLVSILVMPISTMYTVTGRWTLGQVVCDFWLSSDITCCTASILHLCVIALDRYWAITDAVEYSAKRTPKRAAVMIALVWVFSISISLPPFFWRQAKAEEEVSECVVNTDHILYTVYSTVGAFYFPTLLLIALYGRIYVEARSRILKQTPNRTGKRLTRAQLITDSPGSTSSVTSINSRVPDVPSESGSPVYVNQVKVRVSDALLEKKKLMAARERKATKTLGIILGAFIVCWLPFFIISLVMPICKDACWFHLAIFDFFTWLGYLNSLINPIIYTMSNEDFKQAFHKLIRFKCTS
Excerpt: as §1

A further assay addresses T4, 5-HT3 receptor (Homo sapiens, UniProt P46098).
T4 sequence (P46098 24-478): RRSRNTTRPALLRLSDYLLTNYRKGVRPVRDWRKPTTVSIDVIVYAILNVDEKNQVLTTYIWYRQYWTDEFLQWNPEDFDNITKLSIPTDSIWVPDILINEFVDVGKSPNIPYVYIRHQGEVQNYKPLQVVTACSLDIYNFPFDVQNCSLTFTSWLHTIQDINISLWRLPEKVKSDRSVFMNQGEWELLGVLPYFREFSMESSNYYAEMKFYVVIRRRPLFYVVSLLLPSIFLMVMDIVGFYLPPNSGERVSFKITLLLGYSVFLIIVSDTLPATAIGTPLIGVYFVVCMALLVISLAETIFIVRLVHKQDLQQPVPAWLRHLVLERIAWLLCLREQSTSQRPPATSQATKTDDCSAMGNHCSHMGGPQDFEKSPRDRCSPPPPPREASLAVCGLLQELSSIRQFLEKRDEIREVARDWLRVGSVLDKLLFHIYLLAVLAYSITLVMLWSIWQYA
The assay can be described thus: Affinity for other receptors: 5-HT3. The format is binding.
Excerpt: as §1

The next assay concerns the target T5, M1 receptor (Homo sapiens, UniProt P11229).
T5 sequence (P11229 1-460): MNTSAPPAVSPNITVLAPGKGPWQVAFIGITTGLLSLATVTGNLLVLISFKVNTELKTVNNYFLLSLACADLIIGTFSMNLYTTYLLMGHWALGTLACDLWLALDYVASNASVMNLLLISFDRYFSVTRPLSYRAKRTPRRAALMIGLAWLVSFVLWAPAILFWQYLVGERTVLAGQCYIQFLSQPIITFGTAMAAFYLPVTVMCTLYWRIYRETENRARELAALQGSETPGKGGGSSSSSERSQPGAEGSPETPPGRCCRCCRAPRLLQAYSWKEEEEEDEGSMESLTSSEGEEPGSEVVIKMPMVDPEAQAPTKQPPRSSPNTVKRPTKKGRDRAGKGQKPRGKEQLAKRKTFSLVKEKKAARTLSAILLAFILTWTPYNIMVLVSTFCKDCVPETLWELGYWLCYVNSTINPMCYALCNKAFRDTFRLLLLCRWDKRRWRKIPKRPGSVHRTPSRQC
Kind of assay: Affinity for other receptors: M1. It counts as binding.
Excerpt: as §1

A further assay deals with T6, human 5-HT7 receptor (Homo sapiens, UniProt P34969).
T6 construct: expressed in transfected cells; host or cells: CHO
T6 sequence (P34969 whole entry): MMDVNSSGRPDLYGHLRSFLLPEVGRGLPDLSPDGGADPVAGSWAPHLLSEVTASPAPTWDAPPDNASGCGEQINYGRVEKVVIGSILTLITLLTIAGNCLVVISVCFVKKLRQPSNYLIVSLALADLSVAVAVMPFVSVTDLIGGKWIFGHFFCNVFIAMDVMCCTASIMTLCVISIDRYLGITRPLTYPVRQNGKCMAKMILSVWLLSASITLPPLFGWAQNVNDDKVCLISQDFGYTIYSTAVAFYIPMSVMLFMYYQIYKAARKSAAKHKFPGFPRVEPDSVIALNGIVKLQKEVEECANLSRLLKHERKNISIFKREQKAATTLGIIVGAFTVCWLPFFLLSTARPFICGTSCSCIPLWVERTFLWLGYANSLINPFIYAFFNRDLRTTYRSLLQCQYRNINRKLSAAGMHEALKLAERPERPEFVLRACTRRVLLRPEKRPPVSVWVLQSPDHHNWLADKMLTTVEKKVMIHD
The assay can be described thus: Binding test of 5-HT7 receptor. Particulars: [3H]5-HT, human 5-HT7 receptor expressing CHO cell membrane.

The next assay addresses 5-HT4 receptor (Homo sapiens, UniProt Q13639). The assay can be described thus: Affinity for other receptors: 5-HT4. It counts as binding.
Excerpt: as §1

In the next assay the target is 5-HT6 receptor (Homo sapiens, UniProt P50406). The assay can be described thus: Affinity for other receptors: 5-HT6. It counts as binding.
Chain of 5-HT6 receptor (P50406 whole entry): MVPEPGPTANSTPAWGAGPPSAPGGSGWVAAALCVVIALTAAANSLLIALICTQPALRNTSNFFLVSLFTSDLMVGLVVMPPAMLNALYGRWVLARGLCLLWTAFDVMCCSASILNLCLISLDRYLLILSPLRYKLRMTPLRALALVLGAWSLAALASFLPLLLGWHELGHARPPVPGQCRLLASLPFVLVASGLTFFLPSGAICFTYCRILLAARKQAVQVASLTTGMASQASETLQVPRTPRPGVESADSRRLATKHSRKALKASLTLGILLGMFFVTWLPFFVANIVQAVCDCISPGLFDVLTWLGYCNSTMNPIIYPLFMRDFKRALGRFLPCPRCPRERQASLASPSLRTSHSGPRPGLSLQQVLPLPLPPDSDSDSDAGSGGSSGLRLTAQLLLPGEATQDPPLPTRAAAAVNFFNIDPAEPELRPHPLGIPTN
Excerpt: as §1

In a further assay the test system is 5-HT2B receptor. The note with it: against 5-HT1A, 5-HT1B, 5-HT2A, 5-HT2C, 5-HT3, 5-HT6, 5-HT7, α1, M1 and D2 receptors; cited from earlier work.

Structures are written as SMILES.

Chain of 5-HT4 receptor (Q13639 whole entry): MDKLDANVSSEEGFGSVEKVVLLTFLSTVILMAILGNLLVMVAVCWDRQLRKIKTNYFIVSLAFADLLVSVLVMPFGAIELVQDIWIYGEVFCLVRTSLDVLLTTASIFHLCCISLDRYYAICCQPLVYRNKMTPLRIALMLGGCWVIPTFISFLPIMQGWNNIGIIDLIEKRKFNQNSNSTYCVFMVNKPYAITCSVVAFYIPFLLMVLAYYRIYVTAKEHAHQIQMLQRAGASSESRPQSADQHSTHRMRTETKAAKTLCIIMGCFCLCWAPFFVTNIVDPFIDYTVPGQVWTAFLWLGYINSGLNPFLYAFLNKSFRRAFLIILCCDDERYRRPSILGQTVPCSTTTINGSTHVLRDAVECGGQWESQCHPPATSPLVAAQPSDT
Description for human 5-HT2B receptor: HEK293-ENBA cell was used as the gene transferring cell.
Cultured HEK293-EBNA cells expressing human 5-HT2B receptor were washed with PBS(−). The cells were scraped in the presence of PBS(−), and the cells were recovered by centrifugation (1,000 rpm, 10 min, 4° C.). They were homogenized using Polytron (PTA 10-TS) in the presence of 5 mM Tris-HCl (pH 7.4) buffer and centrifuged (40,000×g, 10 min, 4° C.). They were suspended using a homogenizer in the presence of 50 mM Tris-HCl (pH 7.4) buffer. They were subjected to centrifugation (40,000×g, 10 min. 4° C.), suspended in 50 mM Tris-HCl (H 7.4) and stored at −80° C.
A total volume of 500 μl containing 50 mM Tris-HCl-4 mM CaCl2 (pH 7.4) buffer, the human 5-HT2B receptor expressing HEK293-EBNA cell membrane preparation and a radio ligand [^3H]Mesulergine (3.1 TBq/mmol) was incubated at 25° C. for 1 hour. The compound was dissolved in 100%1/DMSO and diluted to respective concentrations. Nonspecific binding was defined as the binding quantity in the presence of 1 μM ritanserin, and the result of subtracting the nonspecific binding quantity from the total binding quantity was defined as the specific binding quantity. […] The glass filter was soaked in 5 ml of a liquid scintillator (Aquasol-2) and the radioactivity was measured using a liquid scintillation counter. […]
Description for human 5-HT7 receptor: Cultured CHO cells expressing human 5-HT7 receptor were washed with PBS(−). The cells were scraped in the presence of PBS(−), and the cells were recovered by centrifugation (1,000 rpm, 10 min, 4° C.). They were homogenized using Polytron (TA 10-TS) in the presence of 5 mM Tris-HCl (pH 7.4) buffer and centrifuged (40,000×g, 10 min, 4° C.). They were suspended using a homogenizer in the presence of 50 mM Tris-HCl (pH 7.4) buffer. They were subjected to centrifugation (40,000×g, 10 min, 4° C.), suspended in 50 mM Tris-HCl (pH 7.4) and stored at −80° C.
A total volume of 500 μl containing 50 mM Tris-HCl-4 mM CaCl2 (pH 7.4) buffer, the human 5-HT7 receptor expressing CHO cell membrane preparation and a radio ligand [^3H]5-HT (3.40 TBq/mmol) was incubated at 25° C. for 1 hour. The compound was dissolved in 100% DMSO and diluted to respective concentrations. Nonspecific binding was defined as the binding quantity in the presence of 10 μM metergoline, and the result of subtracting the nonspecific binding quantity from the total binding quantity was defined as the specific binding quantity. This was mixed with 4 ml of 50 mM Tris-HCl buffer (pH 7.4) and filtered under a reduced pressure using a GF/B glass filter, and the filter was washed (4 ml×3) with the same buffer. The glass filter was soaked in 5 ml of a liquid scintillator (Aquasol-2) and the radioactivity was measured using a liquid scintillation counter. Concentration of the compound which inhibits 50% of the receptor binding, IC50 value, was obtained by nonlinear regression analysis using SAS (ver. 6.11), and the Ki value which represents its affinity for the receptor was calculated using the formula of Cheng & Prussoff; Ki=IC50/(1+[L]/[Kd]) ([L]: ligand concentration, [Kd]: dissociation constant).

Take `Cl.NC(N)=NC(=O)c1ccc2c(c1)C1(CCCO1)c1ccccc1-2` (racemic) [Preparation 60]: in [1], the “leakage of the protein” value is “almost completely suppressed leakage of the protein”.

Turning to `COC1(C)c2ccccc2-c2ccc(C(=O)N=C(N)N)cc21.Cl` (racemic) [Preparation 71], the “leakage of the protein” value in [1] is on record as “almost completely suppressed leakage of the protein”.

`CCC1(OC)c2ccccc2-c2ccc(C(=O)N=C(N)N)cc21.Cl` (racemic) [Preparation 72]: the “leakage of the protein” value in assay [1] is given as “almost completely suppressed leakage of the protein”.

For `COC1(C)c2cc(C(=O)N=C(N)N)ccc2-c2c(F)cccc21.Cl` (racemic) [Preparation 87], the “leakage of the protein” value in [1] is on record as “almost completely suppressed leakage of the protein”.

`Cl.NC(N)=NC(=O)c1ccc2c(c1)C1(CCCO1)c1ccccc1-2` (single isomer, unassigned) [Preparation 60a]: in assay [1], the “leakage of the protein” value was “almost completely suppressed leakage of the protein”.

On to `Cl.NC(N)=NC(=O)c1ccc2c(c1)C1(CCCO1)c1ccccc1-2` (single isomer, unassigned) [Preparation 60b], for which the “leakage of the protein” value in assay [1] is listed as “almost completely suppressed leakage of the protein”.

For the compound `CC1(O)c2cc(C(=O)N=C(N)N)ccc2-c2c(F)cccc21.Cl` (single isomer, unassigned) [Preparation 78b], the “leakage of the protein” value in assay [1] is on record as “almost completely suppressed leakage of the protein”.

On to `Cl.NC(N)=NC(=O)c1ccc2c(c1)C(O)c1ccccc1-2` (centres unmarked) [Preparation 3, N-(diaminomethylene)-9-hydroxy-9H-fluorene-2-carboxamide hydrochloride], for which the concentration for half-maximal inhibition (IC50) on α1 receptor, at 5-HT2C receptor, on 5-HT1A receptor, against D2 receptor, against 5-HT2A receptor and at 5-HT1B receptor was no less than 1000 nM each time. Further, the half-maximal inhibitory concentration (IC50) against 5-HT3 receptor, against M1 receptor, on 5-HT4 receptor and at 5-HT6 receptor was no less than 1000 nM throughout. Besides, the results for the inhibition constant Ki at human 5-HT2B receptor and on human 5-HT7 receptor were 1.8 nM and 17.6 nM, respectively. Further, the “amount of leaked protein (fluorescence intensity per mg dura)” value in assay [1] is “almost completely suppressed the amount of leaked protein”.

In turn, `NC(N)=NC(=O)c1ccc2c(c1)C(Cl)c1ccccc1-2` (centres unmarked) [Preparation 4, 9-chloro-N-(diaminomethylene)-9H-fluorene-2-carboxamide] showed a Ki at human 5-HT7 receptor of 0.4 to 310 nM.

For `NC(N)=NC(=O)c1ccc2c(c1)C(=NO)c1c(CO)cccc1-2` [Preparation 7, (9EZ)-N-(diaminomethylene)-9-hydroxyimino-8-hydroxymethyl-9H-fluorene-2-carboxamide], the Ki at human 5-HT7 receptor was in the range of 0.4 to 310 nM.

As for `CC(C)c1cc(-c2ccc(F)c3ccccc23)nc(N)n1` [RS-127445, 2-amino-4-(4-fluoronaphth-1-yl)-6-isopropylpyrimidine, reference compound], the 5-HT2B receptor selectivity with 5-HT2B receptor is 1000 times. Moreover, in assay [1], the “amount of leaked protein (fluorescence intensity per mg dura)” value was “showed an effect to reduce amount of the leaked protein”. The “amount of leaked protein versus reference value” in assay [1] (dose increased from 3 mg/kg to 10 mg/kg, intraperitoneal) is listed as “did Dot reduced to the reference value”. Moreover, the “minimum amount showing maximum drug effect in this model” value in assay [1] (intraperitoneal) stood at 3 mg/kg.

Turning to `CC1CCN(CC[C@H]2CCCN2S(=O)(=O)c2cccc(O)c2)CC1` [SB-269970, (R)-3-(2-(2-(4-methylpiperidin-1-yl)ethyl)pyrrolidine-1-sulfonyl)phenol, reference compound], the “amount of leaked protein versus reference value” in assay [1] (dose increased from 3 mg/kg to 30 mg/kg, intraperitoneal) is on record as “did not reduced the amount of leaked protein to the reference value”. Moreover, in [1] (from 10 mg/kg, intraperitoneal), the “amount of leaked protein” value is listed as “showed the effect”. Moreover, in assay [1] (intraperitoneal), the “minimum amount showing maximum drug effect in this model” value was determined as 10 mg/kg.

Usually IC50 stands for the concentration that gives 50% inhibition. Lower therefore signals higher potency. A word on the Ki: it is a measure of affinity in units of concentration, obtained from inhibition or displacement. Higher therefore signals weaker binding.
